Each structure is given as a SMILES string.

As a reminder, the melting point is the temperature of the solid-liquid transition.

As for `CC(=O)Cn1c(Oc2ccc(-n3c4ncccc4n4ccnc34)cc2)nc2ccccc21`, the melting point lay within 189 to 192 °C. Molecule `O=C1C(CCO)Oc2ccccc2N1Cc1ccc([N+](=O)[O-])cc1` (stereo unspecified) gave a melting point of 124 to 127 °C. In turn, `Cn1cc(C=O)cc1C(=O)O` displayed a melting point of 178 to 180 °C. The same measure for `COC(=O)[C@@H]1CCCN1C(=O)c1ccc(OC)c(O)c1[N+](=O)[O-]`: 108 to 110 °C. The figure for `CC(C)(C)c1noc(-c2ncn3c2[C@@H]2CCCN2C(=O)c2c(Cl)cccc2-3)n1` is 222 to 224 °C; for `CN(C)C(=O)c1csc(N(C)CC#CI)n1` it is 148 to 150 °C. The same measure for `Oc1ccc(Nc2nc(NCc3ccco3)nc(Oc3ccc(O)cc3)n2)cc1`: 80 to 83 °C; for `COc1ccc(S(=O)(=O)N2CCCC2c2ccc(F)cc2)cc1` (racemic): 134 °C. `Cc1cc(C)c2nc(C)c(NC(=O)Nc3ccc(F)cc3F)c(-c3ccccc3Cl)c2c1` registered a melting point of 234 to 235 °C. In turn, `CC(C)(C)c1ccc(C(C)(C)C(=O)Oc2ccc(SCCCC(=O)O)cc2)cc1` showed a melting point of 86 to 87 °C. The figure for `COC(=O)C(C(=O)N1CCOCC1)C(c1ccccc1)c1cc2cc(Br)ccc2nc1OC` (stereo unspecified) is 206 to 208 °C; for `CC(=O)c1cc(C(N)=O)cs1` it is 156 to 158 °C. The same measure for `NS(=O)(=O)c1cc2c(cc1Cl)C(=O)N(Cc1cccnc1)C2=O`: 210 to 212 °C.

In turn, `O=C(c1ccccc1)c1cc(Cl)ccc1-n1cnnc1CN1C(=O)c2ccccc2C1=O` showed a melting point of 229 to 230 °C. The same measure for `C#CCCOc1cc(NC(=O)CC(CC(=O)O)C(F)(F)F)c(F)cc1Cl` (stereo unspecified): 136 to 137 °C. The same measure for `Cc1c(OCC(F)(F)F)ccnc1CSc1nc2cc(CO)ccc2[nH]1`: 153 to 155 °C; for `O=C1Cc2cccc(OCC3CO3)c2ON1` (stereo unspecified): 158 to 160 °C; for `CC1(C)CCc2ccc(Oc3ccc(N)cn3)cc2O1`: 93 to 94 °C. The same measure for `O=[N+]([O-])c1cccc(/C=C/c2ccc3ccccc3n2)c1`: 145 to 147 °C; for `NC(=O)N1C(=O)C(=C(OC(=O)C=CC(=O)O)c2cccs2)c2cc(F)c(Cl)cc21`: 229 to 232 °C; for `CCC1CC2=C(CO1)C(=O)c1ccccc1C2=O` (stereo unspecified): 98 to 101 °C. As for `CCCCn1c(=O)n(CCC)c(=O)c2c(N)n[nH]c21`, the melting point was in the range of 209 to 211 °C. The figure for `CC(C)(C)c1ccc(S(=O)(=O)n2c(CCCC(=O)O)cc3nc(Cl)ccc32)cc1` is 168 °C; for `CC(C)COc1c(-c2ccc(S(C)(=O)=O)cc2)cnn(-c2ccc(F)c(F)c2)c1=O` it is 116 to 117 °C; for `c1ccc(CN2CCC(=C3c4ccsc4CCn4ccnc43)CC2)cc1` it is 178 °C. The same measure for `N#Cc1cc(N)c(N)c(C#N)c1`: 240 to 244 °C. `CC(C)(C)OC(=O)N1CCN(c2nccc(Oc3ccc(NC(=O)c4cc(F)cc(N5CCOCC5)c4)c4ccccc34)n2)CC1` returned a melting point of 131 to 133 °C. The figure for `CCn1c(=O)oc2ccc(Cl)cc21` is 75 to 78 °C; for `CN1CCN(S(=O)(=O)c2cccc(-c3cc(-c4nc(-c5ccc(C(F)(F)F)cc5)cc(C(F)(F)F)n4)ccn3)c2)CC1` it is 205 °C; for `O=C(NC(NCCc1ccccc1)C(Cl)(Cl)Cl)c1ccncc1` (stereo unspecified) it is 115 to 117 °C. The molecule `C=C[C@H]1OC(C)(C)O[C@@H](CC(=O)OCc2ccccc2)[C@H]1NC(=O)OCc1ccccc1` (relative stereo) came in with a melting point of 39 to 40.8 °C. In turn, `O=C(O)c1cnc(Nc2cc3c4c(c2)CCCC4CCC3)nc1` gave a melting point of 296 to 298 °C. For the molecule `O=C(O)CCC(=O)C(Cc1ccccc1)NC(=O)c1ccccc1` (stereo unspecified), the melting point lay in the range of 143 to 146 °C. The molecule `CC(C)CCC(C)(C#N)N=NC(C)(C#N)CCC(C)C` (stereo unspecified) gave a melting point of 56 to 58 °C. Molecule `COC(=O)c1ccc(OC(C)=O)c(-n2cccc2)c1` came in with a melting point of 49 to 51 °C.

For `O=C(NCC(F)(F)F)C1(CCCCSc2nccs2)c2ccccc2-c2ccccc21`, the melting point lay within 143 to 144 °C.

In turn, `CNC(=O)C(NC(=O)Nc1n[nH]c(=S)s1)c1ccccc1` (stereo unspecified) showed a melting point of 240 to 241 °C. The figure for `COc1cc(OC)c2[nH]c3c(C(=O)Nc4ccc(CCN(C)Cc5ccc(OC)c(OC)c5)cc4)cccc3c(=O)c2c1` is greater than 260 °C; for `CCN1C(=O)C(C)(C)C(=O)N(C)c2cc(CN(CCn3ccc4oc(C(F)(F)F)cc4c3=O)Cc3cccnc3C)ccc21` it is 132 to 134 °C; for `O=C(CCN1CCN(c2cccc(C(F)(F)F)c2)CC1)c1ccc2oc3ccc(C(=O)CCN4CCN(c5cccc(C(F)(F)F)c5)CC4)cc3c(=O)c2c1` it is 166 to 167 °C. The same measure for `O=C(O)C1=CN(C2CC2)C(c2ccc3c(c2)OCO3)CC1=O` (stereo unspecified): 122 to 124 °C. The figure for `Cc1sc2c(Br)c3ccccc3c(-c3ccc(OS(=O)(=O)c4ccc(C(=O)O)c(O)c4)c(C4CCCC4)c3)c2c1C` is greater than 225 °C. In turn, `COc1ccc2[nH]c3c(c2c1[N+](=O)[O-])CCC3=O` had a melting point of 293 °C. The same measure for `Cc1cccc(COc2cccc(COc3ccc4ccccc4n3)c2)c1C(=O)O`: 68 to 72 °C.

On to `CC(=O)CCN1C[C@H]2Cc3ccccc3[C@H](c3ccccc3)[C@H]2C1` (racemic), for which the melting point lay in the range of 121 to 124 °C. The same measure for `O=C1NC(=O)C(=Cc2ccc(OC3CCN(C(=O)OCC4c5ccccc5-c5ccccc54)CC3)cc2)S1`: 185 °C. The figure for `CC(C)(NSc1nc2ccccc2s1)c1ccccc1` is 88 to 90 °C. In turn, `CCOC(=O)c1cn2c3c(cc(N(C)C)cc3c1=O)CCC2C` (stereo unspecified) registered a melting point of 219 to 222 °C. The figure for `CCOC(=O)c1cc(N)nn1C` is 57 to 58 °C; for `CC(C)N(CCN1C(=O)/C(=N/NC(N)=O)c2cc(Cl)ccc21)C(C)C` it is 154 to 155 °C. The same measure for `O=C1c2ccccc2-c2c1c1ccccc1c(=O)n2CCCCCNS(=O)(=O)c1ccc(Br)cc1`: 169 to 171 °C; for `NC(=O)C(OC(=O)Nc1cccc(Cl)c1)(C(N)=O)c1ccccc1`: 196 to 198 °C. As for `C=CC(=O)OC1CC(C)(C)N(OC2CCCCC2)C(C)(C)C1`, the melting point lay in the range of 49 to 52 °C.

In turn, `O=C(O)CN1C(=O)C(=Cc2ccncc2)SC1=S` gave a melting point of 263 to 266 °C. The same measure for `COc1nc2ccccc2cc1NC(=O)N1CCN(c2cccc(OCC3CC3)c2)CC1`: 146 to 147 °C. In turn, `CCOC(=O)CNC(=O)c1cc(C(=O)c2ccccc2Cl)c(N)s1` registered a melting point of 216 to 218 °C.

`COc1ccc(-c2noc(CC(=O)O)c2-c2ccc(OC)cc2)cc1`: the melting point was in the range of 142 to 143 °C. The same measure for `O=C1OC2=C(COc3ccccc32)C1=O`: 146 to 148 °C; for `O=C(N[C@H]1CC[C@H](CCN2CCN(c3nccc4c3CCO4)CC2)CC1)c1ccnc2ccccc12`: 210 °C. The same measure for `COC(=O)c1cccc(Nc2nccc(-c3sc(N)nc3-c3ccccc3)n2)c1`: 223 to 225 °C; for `O=C1c2ccc(F)cc2CCc2cccnc21`: 116 to 119 °C. The same measure for `CC(C)CCC1(c2ccccc2)CC=CC(=O)O1` (stereo unspecified): 134 to 136 °C. On to `Cn1c2ccc([N+](=O)[O-])cc2c2c3c(ccc21)C(=O)OC3=O`, for which the melting point is greater than 300 °C.

Molecule `Cc1cn([C@H]2CC(N=[N+]=[N-])[C@@H](COC(=O)C(C)(C)CC(=O)N[C@@H](Cc3ccccc3)[C@H](O)C(=O)N3CSC[C@H]3C(=O)NC(C)(C)C)O2)c(=O)[nH]c1=O` (stereo partly specified) came in with a melting point of 83 to 84 °C. Molecule `CC(=O)Oc1ccc(-c2cnc[nH]c2=O)cc1OC(C)=O` came in with a melting point of 183 to 184 °C. The figure for `Cn1ccnc1N1CCN(CC(=O)c2ccc(NS(C)(=O)=O)cc2)CC1` is 164 to 165 °C. The figure for `O=C1Nc2cc(C(F)(F)F)ccc2C1=O` is 196 to 198 °C. The same measure for `CCNc1ccc2c(c1)CN(c1cc3c(cc1F)c(=O)c(C(=O)O)cn3CC)C2`: 246 to 248 °C; for `CC1CCC(=NNc2ccccc2)c2ncc(CC(=O)O)c(=O)n21` (stereo unspecified): 160 to 162 °C; for `CCOC(=O)Cc1nccc(NC=O)n1`: 80 to 93 °C. As to `C[C@H](CCC[C@@H](C)[C@H]1C(=O)C[C@H]2[C@@H]3CC=C4C[C@@H](O)CC[C@]4(C)[C@H]3CC[C@]12C)CN1C(=O)c2ccccc2C1=O`, the melting point came out at 55 °C.

With `Cc1cc(C#N)cc(C(=O)Nc2cccc(C(F)(F)F)c2)n1`, the melting point worked out at 167 °C. For `COc1ccc2c(c1)CCC(c1ccccc1)=C2c1ccc(O)cc1`, the melting point was 158 to 162 °C.

For `COC(=O)C(C)(C)NS(=O)(=O)c1ccc2c(Cl)cnc(Cl)c2c1`, the melting point fell in the range of 160 to 161 °C.

For `CCN1C(=O)C(=O)N(c2cc(Cl)ccc2C)C1=S`, the melting point was 173 to 174 °C. Turning to `CCOCCn1c(NC2CCN(CC(=O)O)CC2)nc2cccnc21`, the melting point was found to be 227 °C.

`CS(=O)(=O)c1ccc(-c2nn3ccoc3c2-c2ccc(F)cc2)cc1` showed a melting point of 67 to 70 °C. The figure for `O=C1C=C(c2ccccc2)CC(C(=O)O)C1` (stereo unspecified) is 140 to 160 °C; for `CC(Nc1ccc(Cl)c(Cl)c1)C(=O)O` (stereo unspecified) it is 148 to 149 °C. `O=[N+]([O-])O[C@H]1COc2c(O)cccc2C1` had a melting point of 129 to 130 °C. The figure for `COc1cc(N2CCC(=O)CC2)ncn1` is 111 to 114 °C.

With `Cn1c(N)nc2cc(CN3CCN(C(c4ccccc4)c4ccccc4)CC3)ccc21`, the melting point was 268 °C.

In turn, `Cc1cc(OCc2ccccc2)ccc1OCc1ccccc1` gave a melting point of 42 to 43 °C. As to `CCCCCCCCCCCCCCCCCCOc1cn(CCC)c(CO)cc1=O`, the melting point was 120 to 121 °C. The same measure for `COC(=O)c1ccc(OCCNC(=O)C2Cc3ccccc3N2S(=O)(=O)c2ccc(-c3ccc(F)cc3OC)cc2)cc1F` (stereo unspecified): 73 to 80 °C; for `CCCc1c(OCCCSc2ccc(C(=O)OC)cn2)ccc(C(C)=O)c1O`: 66 to 68 °C.

The values are drawn from a melting point compilation (Tetko et al.; mined from patent text by program, amines drawn as free bases though some values may be those of a salt).
